For seven compounds, Vm (uM min-1 (mg of protein)-1) results are on record in ChEMBL document CHEMBL1135342, “Synthesis and evaluation of thymidine-5'-O-monophosphate analogues as inhibitors of Mycobacterium tuberculosis thymidylate kinase” (Bioorg Med Chem Lett, 2002).

The assay concerns the target T1, Thymidylate kinase (Mycobacterium tuberculosis) (UniProt P9WKE1).
T1 sequence (whole entry): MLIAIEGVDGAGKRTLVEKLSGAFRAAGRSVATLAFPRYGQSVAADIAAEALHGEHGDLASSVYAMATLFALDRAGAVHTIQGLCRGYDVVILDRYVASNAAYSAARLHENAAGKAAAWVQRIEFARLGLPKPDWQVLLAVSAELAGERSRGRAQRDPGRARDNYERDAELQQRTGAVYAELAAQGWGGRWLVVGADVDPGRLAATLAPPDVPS
As to the kind of experiment: Enzyme Kinetic constant was determined in the presence of Mycobacterium tuberculosis thymidine monophosphate kinase.
Consider `Cc1cn(-c2ccc(COP(=O)(O)O)o2)c(=O)[nH]c1=O`, for which the Vm (uM min-1 (mg of protein)-1) amounted to 0.16. Then `O=c1ccn([C@H]2C[C@H](O)[C@@H](COP(=O)(O)O)O2)c(=O)[nH]1`, with 3.5. The value for `O=c1[nH]c(=O)n([C@H]2C[C@H](O)[C@@H](COP(=O)(O)O)O2)cc1F` was 4.7; that for `Cc1cn([C@H]2C[C@H](F)[C@@H](COP(=O)(O)O)O2)c(=O)[nH]c1=O` was 0.11; that for `Cc1cn([C@H]2C[C@H](O)[C@@H](COP(=O)(O)O)O2)c(=O)[nH]c1=O` was 10.6. The value for `O=c1[nH]c(=O)n([C@H]2C[C@H](O)[C@@H](COP(=O)(O)O)O2)cc1I` was 7.5. `O=c1[nH]c(=O)n([C@H]2C[C@H](O)[C@@H](COP(=O)(O)O)O2)cc1Br`: the Vm (uM min-1 (mg of protein)-1) came out at 9.8.
